Laboratory results as given in patent publication US20230167088A1, “1-PYRAZINYLPYRAZOLYL-3-OXYALKYL ACIDS AND THEIR DERIVATIVES, AND THEIR USE FOR CONTROL OF UNDESIRED PLANT GROWTH” (BAYER AKTIENGESELLSCHAFT, priority 2020, published 2023).

Assays:
[1] = system: POAAN; assay: Herbicidal post-emergence action 1b (twin sowing, 1280 g/ha); format: in vivo, Poa annua; conditions: dosage 1280 g/ha, visual rating about 3 weeks after treatment
Summary of the method: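 Twin-sown weeds in sandy loam, greenhouse-grown 2–3 weeks, sprayed post-emergence at one-leaf stage with WP/EC formulations plus 0.5% additive at 600 L/ha water. Damage rated visually about 3 weeks later versus untreated controls (100% = plants dead, 0% = like control).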

[2] = system: ABUTH; assay: as above; format: in vivo, Abutilon theophrasti; conditions: dosage 1280 g/ha, visual rating about 3 weeks after treatment
Description: (§1) [table] b) Seeds of mono- and dicotyledonous weed plants are placed in plastic pots in sandy loam soil (twin sowing with one species each of mono- or dicotyledonous weed plants per pot), covered with soil and cultivated in a greenhouse under controlled growth conditions. 2 to 3 weeks after sowing, the test plants are treated at the one-leaf stage. The compounds of the invention, formulated in the form of wettable powders (WP) or as emulsion concentrates (EC), are applied to the green parts of the plants as aqueous suspension or emulsion with addition of 0.5% additive at a water application rate equivalent to 600 litres per hectare. After the test plants have been kept in the greenhouse under optimum growth conditions for about 3 weeks, the activity of the preparations is rated visually in comparison to untreated controls. For example, 100% activity=the plants have died, 0% activity=like control plants. Tables A16 to A21 below show the effects of selected compounds of the general formula (I) according to Tables 1 and 2 on various harmful plants and at an application rate corresponding to 1280 g/ha, which were obtained by the experimental procedure mentioned above.

[3] = system: POAAN; assay: Herbicidal pre-emergence action 2b (doubly sown, 1280 g/ha); format: in vivo, Poa annua; conditions: doubly sown pots, dosage 1280 g/ha, visual scoring after about 3 weeks
Summary of the method: (§2)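 Pots of sandy loam doubly sown with one monocot and one dicot weed species, covered, then soil surface sprayed pre-emergence with WP or EC formulations plus 0.5% additive at 600 l/ha water. Greenhouse-grown about 3 weeks; activity scored visually as % versus untreated controls (100% = dead).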

[4] = system: DIGSA; assay: as above; format: in vivo, Digitaria sanguinalis; conditions: doubly sown pots, dosage 1280 g/ha, visual scoring after about 3 weeks
From the text: [table] b) Seeds of mono- and dicotyledonous weed plants are placed in plastic pots in sandy loam soil (doubly sown with one species each of mono- or dicotyledonous weed plants per pot) and covered with soil. The compounds of the invention, formulated in the form of wettable powders (WP) or as emulsion concentrates (EC), are then applied onto the surface of the covering soil as aqueous suspension or emulsion with addition of 0.5% additive at a water application rate equivalent to 600 litres per hectare. After the treatment, the pots are placed in a greenhouse and kept under good growth conditions for the trial plants. After about 3 weeks, the effect of the preparations is scored visually in comparison with untreated controls as percentages. For example, 100% activity=the plants have died, 0% activity=like control plants. Tables B16 to B21 below show the effects of selected compounds of the general formula (I) according to Tables 1 and 2 on various harmful plants and at an application rate corresponding to 1280 g/ha, which were obtained by the experimental procedure mentioned above.

[5] = system: AMARE; assay: as above; format: in vivo, Amaranthus retroflexus; conditions: doubly sown pots, dosage 1280 g/ha, visual scoring after about 3 weeks
Summary of the method: as §2

[6] = system: STEME; assay: as above; format: in vivo, Stellaria media; conditions: doubly sown pots, dosage 1280 g/ha, visual scoring after about 3 weeks
Summary of the method: as §2

[7] = system: DIGSA; assay: Herbicidal post-emergence action 1b (twin sowing, 1280 g/ha); format: in vivo, Digitaria sanguinalis; conditions: dosage 1280 g/ha, visual rating about 3 weeks after treatment
Description: as §1

[8] = system: ECHCG; assay: as above; format: in vivo, Echinochloa crus-galli; conditions: dosage 1280 g/ha, visual rating about 3 weeks after treatment
Description: as §1

[9] = system: MATIN; assay: as above; format: in vivo, Matricaria inodora; conditions: dosage 1280 g/ha, visual rating about 3 weeks after treatment
Description: as §1

[10] = system: STEME; assay: as above; format: in vivo, Stellaria media; conditions: dosage 1280 g/ha, visual rating about 3 weeks after treatment
Description: as §1

[11] = system: ECHCG; assay: Herbicidal pre-emergence action 2b (doubly sown, 1280 g/ha); format: in vivo, Echinochloa crus-galli; conditions: doubly sown pots, dosage 1280 g/ha, visual scoring after about 3 weeks
Summary of the method: as §2

[12] = system: MATIN; assay: as above; format: in vivo, Matricaria inodora; conditions: doubly sown pots, dosage 1280 g/ha, visual scoring after about 3 weeks
Summary of the method: as §2

[13] = system: ALOMY; assay: Herbicidal post-emergence action 1a (greenhouse pots, visual rating); format: in vivo, Alopecurus myosuroides; conditions: Dosage 80 g/ha; rated visually about 3 weeks after treatment; 100% = plants have died, 0% = like control plants
Summary of the method: (§3)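 Weeds and crops sown in sandy loam in greenhouse pots were sprayed post-emergence at the one-leaf stage (2–3 weeks after sowing) with WP or EC formulations plus 0.5% additive at 600 l/ha water, 320 and/or 80 g/ha. About 3 weeks later damage was rated visually against untreated controls (0% = no effect, 100% = dead).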

[14] = system: AVEFA; assay: as above; format: in vivo, Avena fatua; conditions: Dosage 80 g/ha; rated visually about 3 weeks after treatment; 100% = plants have died, 0% = like control plants
Summary of the method: as §3

[15] = system: AMARE; assay: as above; format: in vivo, Amaranthus retroflexus; conditions: dosage 80 g/ha, visual rating about 3 weeks after treatment
Summary of the method: as §3

[16] = system: ALOMY; assay: Herbicidal pre-emergence action 2a (greenhouse pots, visual scoring); format: in vivo, Alopecurus myosuroides; conditions: dosage 320 g/ha, visual scoring after about 3 weeks
Summary of the method: (§4)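 Pre-emergence greenhouse pot test: WP or EC formulations sprayed onto covering soil over sown seeds at 600 l/ha water with 0.5% additive, at rates corresponding to 320 g/ha and/or 80 g/ha. Visual % activity versus untreated controls after about 3 weeks (100% = plants dead).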

[17] = system: AVEFA; assay: as above; format: in vivo, Avena fatua; conditions: dosage 320 g/ha, visual scoring after about 3 weeks
Summary of the method: as §4

[18] = system: LOLRI; assay: as above; format: in vivo, Lolium rigidum; conditions: dosage 320 g/ha, visual scoring after about 3 weeks vs untreated controls
Summary of the method: as §4

[19] = system: AMARE; assay: as above; format: in vivo, Amaranthus retroflexus; conditions: dosage 320 g/ha, visual scoring after about 3 weeks vs untreated controls
Summary of the method: as §4

[20] = system: POLCO; assay: as above; format: in vivo, Polygonum convolvulus; conditions: dosage 320 g/ha, visual scoring after about 3 weeks vs untreated controls
Summary of the method: as §4

[21] = system: VIOTR; assay: as above; format: in vivo, Viola tricolor; conditions: dosage 320 g/ha, visual scoring after about 3 weeks vs untreated controls
From the text: [table] a) Seeds of monocotyledonous and dicotyledonous weed plants and crop plants are placed in plastic or organic plant pots and covered with soil. The compounds of the invention, formulated in the form of wettable powders (WP) or as emulsion concentrates (EC), are then applied onto the surface of the covering soil as aqueous suspension or emulsion with addition of 0.5% additive at a water application rate of 600 1/ha (converted). After the treatment, the pots are placed in a greenhouse and kept under good growth conditions for the trial plants. After about 3 weeks, the effect of the preparations is scored visually in comparison with untreated controls as percentages. For example, 100% activity=the plants have died, 0% activity=like control plants. Tables B1 to B15 below show the effects of selected compounds of the general formula (I) according to Tables 1 and 2 on various harmful plants and an application rate corresponding to 320 g/ha and/or 80 g/ha, which were obtained by the experimental procedure mentioned above.

[22] = system: VERPE; assay: as above; format: in vivo, Veronica persica; conditions: dosage 320 g/ha, visual scoring after about 3 weeks vs untreated controls
Summary of the method: as §4

Row | Compound | Post-emergence action at 1280 g/ha against POAAN in % [1] [%] | Post-emergence action at 1280 g/ha against ABUTH in % [2] [%] | Pre-emergence action at 1280 g/ha against POAAN in % [3] [%] | Pre-emergence action at 1280 g/ha against DIGSA in % [4] [%] | Pre-emergence action at 1280 g/ha against AMARE in % [5] [%] | Pre-emergence action at 1280 g/ha against STEME in % [6] [%] | Post-emergence action at 1280 g/ha against DIGSA in % [7] [%] | Post-emergence action at 1280 g/ha against ECHCG in % [8] [%] | Post-emergence action at 1280 g/ha against MATIN in % [9] [%] | Post-emergence action at 1280 g/ha against STEME in % [10] [%] | Pre-emergence action at 1280 g/ha against ECHCG in % [11] [%] | Pre-emergence action at 1280 g/ha against MATIN in % [12] [%] | other results
1 | CC(Oc1nn(-c2cnccn2)c(-c2ccc(F)nc2)c1Br)C(=O)O (racemic) [Example I-24] | 100 | 90 | 100 | 100 | 90 | 90 | – | – | – | – | – | – | –
2 | COC(=O)[C@@H](C)Oc1nn(-c2cnccn2)c(-c2cccnc2)c1Br [Example I-38] | 100 | – | 100 | 100 | 100 | 100 | 90 | 100 | 90 | 100 | 100 | 100 | –
3 | COC(=O)COc1nn(-c2cnccn2)c(-c2cnc(F)c(F)c2)c1Br [Example I-42] | 100 | – | 100 | 100 | 90 | 90 | 90 | – | 100 | – | – | 90 | –
4 | CCOC(=O)COc1nn(-c2cnccn2)c(-c2ccc(F)nc2)c1C(F)(F)F [Example I-66] | 90 | 90 | 100 | 100 | 100 | 100 | – | – | 90 | – | 90 | 100 | –
5 | CC(C)=NOC(=O)COc1nn(-c2cnccn2)c(-c2ccc(F)nc2)c1Br [Example I-69] | 90 | – | 100 | 100 | 100 | 100 | 90 | 90 | 90 | 90 | 100 | 100 | –
6 | CCOC(=O)COc1nn(-c2nccnc2Cl)c(-c2ccc(F)nc2)c1Br [Example I-71] | 100 | – | 100 | 100 | 100 | 100 | 90 | 100 | 100 | – | 100 | 100 | –
7 | COC(=O)[C@@H](C)Oc1nn(-c2nccnc2Cl)c(-c2ccc(F)nc2)c1Br [Example I-72] | 100 | – | 100 | 100 | 100 | 100 | 100 | 100 | 100 | 90 | 100 | 100 | Post-emergence action against ALOMY in % [13]: 90%; Post-emergence action against AVEFA in % [14]: 90%; Post-emergence action against AMARE in % [15]: 80%; Pre-emergence action against ALOMY in % [16]: 90%; Pre-emergence action against AVEFA in % [17]: 80%; Pre-emergence action against LOLRI in % [18]: 100%; Pre-emergence action against AMARE in % [19]: 100%; Pre-emergence action against POLCO in % [20]: 90%; Pre-emergence action against VIOTR in % [21]: 90%; Pre-emergence action against VERPE in % [22]: 80%
8 | O=C(O)COc1nn(-c2nccnc2Cl)c(-c2ccc(F)nc2)c1Br [Example I-73] | 100 | 90 | 100 | – | 100 | 100 | – | 100 | 100 | – | 100 | 100 | –
9 | CCOC(=O)COc1nn(-c2nccnc2F)c(-c2ccc(F)c(F)c2)c1Br [Example I-74] | 90 | – | 100 | 100 | 100 | 100 | 90 | – | 90 | – | – | 100 | –
